# Literature values, collected in patent US20120214830A1, “BIOLOGICAL MARKERS PREDICTIVE OF ANTI-CANCER RESPONSE TO INSULIN-LIKE GROWTH FACTOR-1 RECEPTOR KINASE INHIBITORS IN HEPATOCELLULAR CARCINOMA” (OSI Pharmaceuticals, LLC, priority 2011, published 2012).
# Like-named read-outs stand apart in the source and are kept apart here.
# Tested on: tumor xenograft
# Settings: cited from earlier work
structure (smiles),measurement,setting,value
"C[C@]1(O)C[C@@H](c2nc(-c3ccc4ccc(-c5ccccc5)nc4c3)c3c(N)nccn32)C1 [OSI-906, cis-3-[8-amino-1-(2-phenyl-quinolin-7-yl)-imidazo[1,5-a]pyrazin-3-yl]-1-methyl-cyclobutanol]",tumor growth inhibition (TGI),xenografts of tumor cells with high sensitivity to OSI-906 in culture in vitro,high pencentage tumor growth inhibition
same,tumor growth inhibition (TGI),xenografts of tumor cells with low sensitivity to OSI-906 in culture in vitro,only a low pencentage tumor growth inhibition
